Measurements as given in patent publication US20100028395A1, “COMPOSITIONS CONTAINING N-ACETYLGLUCOSAMINE FOR USE IN DERMO-COSMETOLOGY AND AESTHETIC MEDICINE” (ROTTAPHARM S.P.A., priority 2007, published 2010).

Columns and labels:
[1] = test system: Human fibroblasts, Detroit 551 ATCC CCL III; experiment: Stimulation of elastin synthesis in human fibroblast cultures (Fastin assay); format: cell-based; conditions: 24 h
Source text: The scope of the test has been the evaluation and the comparison of the potential stimulation exerted by the test substances on the expression of collagen and elastin in “in vitro” cultures of skin-derived cells, such as fibroblasts. The test in question, even though conducted “in vitro”, can be considered to be predictive of the effects of use of the same substances “in vivo”.
Human fibroblasts, Detroit 551 ATCC CCL III from LGC Promochem (Milan, Italy) have been used.
The substances and concentrations tested have been the same as those already described for stage B of the test on the stimulation of HA expression, i.e.: • CA: 0.66, 1.32, 1.98, 2.64 and 3.3 mg/ml • NAG: 0.5, 1.0, 1.5, 2.0 and 2.5 mg/ml • ASS: 0.16, 0.32, 0.48, 0.64 and 0.80 mg/ml
Cells have been plated out in 96 well plates, 2500 cells/well for 24 hours in cell growth medium ([…], DMEM)+10% foetal calf serum (FCS). Fresh culture medium, enriched with just 5% FCS and containing the substances to be tested, so as to reach the final concentrations desired, has then been added. The samples have been dissolved directly in the culture medium. Each sample has been tested in duplicate and the experiments have been repeated twice. The parameters of interest have been determined after 24 hours on separate plates. Untreated cell cultures have been used as controls.
Elastin has been assayed using a commercially available test (Fastin™, biodye science). The assay is based on the interaction of 5,10,15,20-tetraphenyl-21,23-porphyrin with elastin molecules.
De novo elastin synthesis has been evaluated in the culture medium following treatment with the test substances, following the protocol provided with the test, and by using the calibration curve obtained employing the elastin standard contained in the kit itself.
Evaluation of the effects of the substances tested, at the various concentrations, on fibroblast cultures, has been expressed as the absolute and percent increase or decrease of collagen and elastin expression, with respect to the corresponding control culture, after 24 hours of incubation.
The percentage difference increase or decrease of the effects exerted by CA and NAG, at corresponding concentrations, have then been calculated, with consequent evaluation of their potential statistical significance by means of the test Student “t” test.

[2] = test system: Human fibroblasts, Detroit 551 ATCC CCL III; experiment: Stimulation of HA synthesis in human fibroblast cultures (EIA HA assay); format: cell-based; conditions: for HA(ng/well) (Diff. from baseline) / HA (%) (Diff. from baseline): 48 h; for HA (%) from NAG (consistent doses): see Table 2
Source text: The test has been conducted in two stages, i.e.: • stage A: in which the stimulation of HA expression by COMBI has been evaluated while maintaining the concentration constant and varying the reciprocal quantities of its components. The concentration used has been selected so as to enable comparison with the results derived from stage B; • stage B: in which the effect of CA on HA expression has been evaluated by varying its concentration and in comparison with doses consistent with its components. […] Human fibroblasts have been grown in suitable growth medium (Eagle's minimal essential medium) supplemented with 10% foetal calf serum (FCS), 1 mM sodium pyruvate, 2 mM glutamine, non-essential aminoacids and 50 μg/ml glutamycin. […] After 48 hours, the supernatant has been removed and used for the determination of the parameters of interest. The test has been conducted in duplicate and untreated cell cultures have been used as controls. HA has been assayed (dosed) by means of an immuno-enzymatic test using a commercially available kit (EIA, Corgenix). De novo HA synthesis has been evaluated in the culture medium following treatment with the test substances, according to the protocol provided with the test, and against the calibration curve obtained using the HA standard contained in the kit. […] • evaluation of the effects of the substances tested, at the various concentrations, on fibroblast cultures has been expressed as the absolute and percent increase or decrease of the HA expression, with respect to the corresponding control culture, after 48 hours of incubation. The percentage difference increase or decrease of the effects exerted by CA and NAG, at corresponding concentrations, have then been calculated, with evaluation of their potential significance by means of the Student's “t” test.

In the case of `CC(=O)N[C@@H](C=O)[C@@H](O)[C@H](O)[C@H](O)CO` [NAG, N-acetyl-2-amino-2 deoxyglucose], the “Elastin (μg/ml) (Diff. from baseline)” value ([1]; NAG 0.50 mg/ml) is reported as “+11.21 μg/ml”, the “Elastin (μg/ml) (Mean ± st. dev.)” value ([1]; NAG 0.50 mg/ml) is reported as 16.29 ± 0.83 µg/mL and the “Elastin (%) (Diff. from baseline)” value ([1]; NAG 1.00 mg/ml) is reported as “+278.94%”. For the same molecule, the “Elastin (μg/ml) (Diff. from baseline)” value ([1]; NAG 1.00 mg/ml) was “+14.17 μg/ml”, the “Elastin (μg/ml) (Mean ± st. dev.)” value ([1]; NAG 1.00 mg/ml) was 19.25 ± 0.99 µg/mL and the “Elastin (%) (Diff. from baseline)” value ([1]; NAG 1.50 mg/ml) was “+320.28%”. The “Elastin (μg/ml) (Diff. from baseline)” value ([1]; NAG 1.50 mg/ml) was “+16.27 μg/ml”, the “Elastin (μg/ml) (Mean ± st. dev.)” value ([1]; NAG 1.50 mg/ml) was 21.35 ± 1.01 µg/mL and the “Elastin (%) (Diff. from baseline)” value ([1]; NAG 2.00 mg/ml) was “+345.27%”. For the same molecule, the “Elastin (μg/ml) (Diff. from baseline)” value ([1]; NAG 2.00 mg/ml) was “+17.54 μg/ml”, the “Elastin (μg/ml) (Mean ± st. dev.)” value ([1]; NAG 2.00 mg/ml) was 22.62 ± 1.03 µg/mL and the “Elastin (μg/ml) (Diff. from baseline)” value ([1]; NAG 2.50 mg/ml) was “+17.22 μg/ml”. For the same molecule, the “Elastin (μg/ml) (Mean ± st. dev.)” value ([1]; NAG 2.50 mg/ml) was 22.30 ± 1.04 µg/mL, the “HA(ng/well) (Diff. from baseline)” value ([2]; NAG 0.50 mg/ml) was “+54 ng/well” and the “HA (%) (Diff. from baseline)” value ([2]; NAG 1.00 mg/ml) was “+58.98%”. For the same molecule, the “HA(ng/well) (Diff. from baseline)” value ([2]; NAG 1.00 mg/ml) was “+289 ng/well”, the “HA (%) (Diff. from baseline)” value ([2]; NAG 1.50 mg/ml) was “+76.12%” and the “HA(ng/well) (Diff. from baseline)” value ([2]; NAG 1.50 mg/ml) was “+373 ng/well”. The “HA (%) (Diff. from baseline)” value ([2]; NAG 2.00 mg/ml) was “+78.78%”, the “HA(ng/well) (Diff. from baseline)” value ([2]; NAG 2.00 mg/ml) was “+386 ng/well” and the “HA (%) (Diff. from baseline)” value ([2]; NAG 2.50 mg/ml) was “+96.73%”. For the same molecule, the “HA(ng/well) (Diff. from baseline)” value ([2]; NAG 2.50 mg/ml) was “+474 ng/well”, the “HA (%) from NAG (consistent doses)” value ([2]; NAG alone at 0.93 mg/ml (content of 1:3.5 combination)) was “≈59%” and the “HA (%) from NAG (consistent doses)” value ([2]; NAG alone at 1.71 mg/ml (content of 1:0.5 combination)) was “+76.12-+78.8%”.
